Reference: the NIST ThermoML archive (doi:10.1021/je900478c)

Experiment: xn = mol fraction of the nth substance listed
Details: 101 kPa, Liquid; for viscosity: Capillary tube (Ostwald / Ubbelohde) method; for mass density: Vibrating tube method

CCCCOCCOCCO [3,6-dioxa-1-decanol] + O
Details | mass density, 283.15 K [kg/m3] | mass density, 293.15 K [kg/m3] | mass density, 303.15 K [kg/m3] | mass density, 313.15 K [kg/m3] | mass density, 323.15 K [kg/m3] | viscosity, 283.15 K [mPa·s] | viscosity, 293.15 K [mPa·s] | viscosity, 303.15 K [mPa·s] | viscosity, 313.15 K [mPa·s] | viscosity, 323.15 K [mPa·s]
x1 = 0.00199 | 1000.2 | 998.59 | 995.87 | 992.68 | – | – | – | – | – | –
x1 = 0.003 | 1000.41 | 998.79 | 996.01 | 992.86 | – | – | – | – | – | –
x1 = 0.00498 | 1001.05 | 999.2 | 996.31 | 993.28 | – | – | – | – | – | –
x1 = 0.00617 | 1001.43 | 999.48 | 996.53 | 993.43 | – | – | – | – | – | –
x1 = 0.00706 | 1001.75 | 999.68 | 996.67 | 993.51 | – | – | – | – | – | –
x1 = 0.00794 | 1002 | 999.88 | 996.81 | 993.62 | – | – | – | – | – | –
x1 = 0.00892 | 1002.32 | 1000.11 | 996.95 | 993.66 | – | – | – | – | – | –
x1 = 0.00993 | 1002.65 | 1000.34 | 997.07 | 993.71 | – | – | – | – | – | –
x1 = 0.01492 | 1004.27 | 1001.44 | 997.66 | 993.62 | – | – | – | – | – | –
x1 = 0.02056 | 1005.74 | 1002.03 | 997.51 | 993.05 | – | – | – | – | – | –
x1 = 0.0238 | 1006.36 | 1002.2 | 997.18 | 992.61 | – | – | – | – | – | –
x1 = 0.02697 | 1006.66 | 1002.11 | 997 | 992.19 | – | – | – | – | – | –
x1 = 0.03015 | 1006.78 | 1001.94 | 996.61 | 991.64 | – | – | – | – | – | –
x1 = 0.03953 | 1006.53 | 1001.04 | 995.23 | 989.79 | – | – | – | – | – | –
x1 = 0.06038 | 1005.13 | 998.81 | 992.28 | 986.16 | – | – | – | – | – | –
x1 = 0.07987 | 1003.42 | 996.64 | 989.68 | 983.24 | – | – | – | – | – | –
x1 = 0.1 | 1001.67 | 994.55 | 987.21 | 979.73 | 971.95 | 8.644 | 5.684 | 3.974 | 2.914 | 2.216
x1 = 0.2 | 992.63 | 984.71 | 976.63 | 968.47 | 960.1 | 12.36 | 7.986 | 5.482 | 3.942 | 2.943
x1 = 0.2999 | 985.44 | 977.27 | 968.97 | 960.58 | 951.9 | 13.32 | 8.637 | 5.93 | 4.259 | 3.173
x1 = 0.4 | 979.51 | 971.27 | 962.91 | 954.51 | 945.89 | 13.06 | 8.55 | 5.913 | 4.27 | 3.195
x1 = 0.5 | 974.9 | 966.63 | 958.27 | 949.82 | 941.29 | 12.36 | 8.183 | 5.713 | 4.161 | 3.133
x1 = 0.6 | 971.46 | 963.17 | 954.74 | 946.32 | 937.75 | 11.49 | 7.708 | 5.442 | 3.998 | 3.033
x1 = 0.7 | 968.77 | 960.45 | 952.05 | 943.62 | 935.03 | 10.58 | 7.203 | 5.144 | 3.816 | 2.918
x1 = 0.7998 | 966.62 | 958.25 | 949.8 | 941.34 | 932.8 | 9.748 | 6.727 | 4.857 | 3.638 | 2.804
x1 = 0.8999 | 964.58 | 956.18 | 947.72 | 939.34 | 930.8 | 9.038 | 6.309 | 4.601 | 3.474 | 2.697
x1 = 1 | 962.57 | 954.16 | 945.74 | 937.35 | 928.85 | 8.301 | 5.86 | 4.323 | 3.295 | 2.58
